Data: patent US20200181104A1, “SSAO INHIBITORS AND USES THEREOF” (METACRINE, INC., priority 2018, published 2020)
Where a name gives a salt, the structure may show the parent alone.

Target: T1, Recombinant Human SSAO/VAP-1/AOC3 (Homo sapiens, UniProt Q16853)
T1 construct: purchased R&D systems 3957-AO
T1 sequence (Q16853 1-763): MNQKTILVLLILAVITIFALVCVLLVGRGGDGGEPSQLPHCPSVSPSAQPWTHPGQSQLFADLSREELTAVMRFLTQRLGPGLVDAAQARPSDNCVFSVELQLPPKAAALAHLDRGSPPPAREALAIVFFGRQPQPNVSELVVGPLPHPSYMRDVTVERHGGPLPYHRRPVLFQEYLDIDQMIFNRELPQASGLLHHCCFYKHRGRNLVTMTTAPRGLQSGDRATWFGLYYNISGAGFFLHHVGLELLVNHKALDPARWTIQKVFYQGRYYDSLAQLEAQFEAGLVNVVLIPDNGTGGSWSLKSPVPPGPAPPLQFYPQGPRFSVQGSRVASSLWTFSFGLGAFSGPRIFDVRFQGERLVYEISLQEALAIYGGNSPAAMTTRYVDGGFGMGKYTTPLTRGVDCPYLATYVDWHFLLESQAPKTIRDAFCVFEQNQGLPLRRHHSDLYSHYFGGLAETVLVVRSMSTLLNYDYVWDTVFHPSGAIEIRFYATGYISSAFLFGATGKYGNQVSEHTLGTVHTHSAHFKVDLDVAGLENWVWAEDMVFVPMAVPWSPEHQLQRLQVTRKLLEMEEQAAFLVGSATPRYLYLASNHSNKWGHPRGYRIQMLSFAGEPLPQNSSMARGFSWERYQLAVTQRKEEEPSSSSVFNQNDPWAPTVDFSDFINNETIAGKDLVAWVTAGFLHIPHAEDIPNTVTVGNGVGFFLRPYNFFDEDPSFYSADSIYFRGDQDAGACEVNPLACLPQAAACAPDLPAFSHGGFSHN
Test: Human Semicarbazide-Sensitive Amine Oxidase (SSAO) Assay
Format: biochemical
Settings: recombinant enzyme, 30 minutes preincubation at 37° C., benzylamine substrate, Amplex Ultra Red/HRP fluorescence
Outline: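 IC50 from kinetic Amplex Ultra Red/HRP fluorescence (ex 544, em 590 nm, 30-120 min) after benzylamine addition. Beforehand, 6-10 compound dilutions were preincubated 30 min at 37 °C with recombinant human SSAO in 50 mM HEPES (enzyme working concentration 2.5 μg/ml).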

| SMILES | IC50 [nM] |
| --- | --- |
| Cc1cncc(CNC(=O)C23CCC(c4ccc(OC/C(=C/F)CN)cc4)(CC2)CC3)n1 [Compound 2.157, (E)-4-(4-((2-(aminomethyl)-3-fluoroallyl)oxy)phenyl)-N-((6-methylpyrazin-2-yl)methyl)bicyclo[2.2.2]octane-1-carboxamide] | ≤ 10 |
| Cc1cnc(CNC(=O)C23CCC(c4ccc(OC/C(=C/F)CN)cc4)(CC2)CC3)cn1 [Compound 2.158, (E)-4-(4-((2-(aminomethyl)-3-fluoroallyl)oxy)phenyl)-N-((5-methylpyrazin-2-yl)methyl)bicyclo[2.2.2]octane-1-carboxamide] | ≤ 10 |
| NC/C(=C\F)COc1ccc(C23CCC(C(=O)NCc4cncc(C(F)(F)F)c4)(CC2)CC3)cc1 [Compound 2.159, (E)-4-(4-((2-(aminomethyl)-3-fluoroallyl)oxy)phenyl)-N-((5-(trifluoromethyl)pyridin-3-yl)methyl)bicyclo[2.2.2]octane-1-carboxamide] | ≤ 10 |
| COc1cnc(CNC(=O)C23CCC(c4ccc(OC/C(=C/F)CN)cc4)(CC2)CC3)cn1 [Compound 2.160, (E)-4-(4-((2-(aminomethyl)-3-fluoroallyl)oxy)phenyl)-N-((5-methoxypyrazin-2-yl)methyl)bicyclo[2.2.2]octane-1-carboxamide] | ≤ 10 |
| COc1cncc(CNC(=O)C23CCC(c4ccc(OC/C(=C/F)CN)cc4)(CC2)CC3)n1 [Compound 2.161, (E)-4-(4-((2-(aminomethyl)-3-fluoroallyl)oxy)phenyl)-N-((6-methoxypyrazin-2-yl)methyl)bicyclo[2.2.2]octane-1-carboxamide] | ≤ 10 |
| NC/C(=C\F)COc1ccc(C23CC(C(=O)NC4CCOCC4)(C2)C3)cc1 [Compound 3, (E)-3-(4-((2-(aminomethyl)-3-fluoroallyl)oxy)phenyl)-N-(tetrahydro-2H-pyran-4-yl)bicyclo[1.1.1]pentane-1-carboxamide] | ≤ 10 |
| CC1(C)CC(NC(=O)C23CC(c4ccc(OC/C(=C/F)CN)cc4)(C2)C3)CCO1 (stereo not shown) [Compound 3.01, (E)-3-(4-((2-(aminomethyl)-3-fluoroallyl)oxy)phenyl)-N-(2,2-dimethyltetrahydro-2H-pyran-4-yl)bicyclo[1.1.1]pentane-1-carboxamide] | ≤ 10 |
| CC1(C)CC(NC(=O)C23CC(c4ccc(OC/C(=C/F)CN)cc4)(C2)C3)CC(C)(C)O1 [Compound 3.02, (E)-3-(4-((2-(aminomethyl)-3-fluoroallyl)oxy)phenyl)-N-(2,2,6,6-tetramethyltetrahydro-2H-pyran-4-yl)bicyclo[1.1.1]pentane-1-carboxamide] | ≤ 10 |
| COCCNC(=O)C12CC(c3ccc(OC/C(=C/F)CN)cc3)(C1)C2 [Compound 3.03, (E)-3-(4-((2-(aminomethyl)-3-fluoroallyl)oxy)phenyl)-N-(2-methoxyethyl)bicyclo[1.1.1] pentane-1-carboxamide] | ≤ 10 |
| CO[C@H]1C[C@@H](NC(=O)C23CC(c4ccc(OC/C(=C/F)CN)cc4)(C2)C3)C1 [Compound 3.05, 3-(4-(((E)-2-(aminomethyl)-3-fluoroallyl)oxy)phenyl)-N-((1r,3r)-3-methoxycyclobutyl)bicyclo [1.1.1]pentane-1-carboxamide] | ≤ 10 |
| CNC(=O)C12CCC(c3ccc(OC/C(=C/F)CN)cc3)(CC1)C2 [Compound 4, (E)-4-(4-((2-(Aminomethyl)-3-fluoroallyl)oxy)phenyl)-N-methylbicyclo[2.2.1]heptane-1-carboxamide Hydrochloride] | ≤ 10 |
| NC/C(=C\F)COc1ccc(C23CCC(C(=O)NC4CCOCC4)(CC2)C3)cc1 [Compound 4.01, (E)-4-(4-((2-(Aminomethyl)-3-fluoroallyl)oxy)phenyl)-N-(tetrahydro-2H-pyran-4-yl)bicyclo[2.2.1]heptane-1-carboxamide Hydrochloride] | ≤ 10 |
| CNC(=O)C12CCCC(c3ccc(OC/C(=C/F)CN)cc3)(CC1)C2 (stereo not shown) [Compound 5, 5-(4-(((E)-2-(Aminomethyl)-3-fluoroallyl)oxy)phenyl)-N-methylbicyclo[3.2.1]octane-1-carboxamide Hydrochloride] | ≤ 10 |
